Measurements published in PubChem BioAssay (NCI).
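All cell lines were grown in 96-well plates and treated with compound for 48 hours. GI50 marks 50% less growth. TGI marks complete inhibition of growth.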

Legend:
Test in all cases: inhibition of tumour cell growth, NCI panel, 48 h
[1] = test system: EKVX NSCLC
[2] = test system: NCI-H460 lung
[3] = test system: SF-295 CNS
[4] = test system: CAKI-1 renal
[5] = test system: UO-31 renal
[6] = test system: RPMI-8226 leukemia
[7] = test system: NCI-H23 lung
[8] = test system: OVCAR-5 ovarian
[9] = test system: A549 NSCLC
[10] = test system: HOP-92 NSCLC

| SMILES | GI50 [1] [µM] | TGI [1] [µM] | GI50 [2] [µM] | TGI [2] [µM] | GI50 [3] [µM] | TGI [3] [µM] | GI50 [4] [µM] | TGI [4] [µM] | GI50 [5] [µM] | TGI [5] [µM] | GI50 [6] [µM] | TGI [6] [µM] | GI50 [7] [µM] | TGI [7] [µM] | GI50 [8] [µM] | TGI [8] [µM] | GI50 [9] [µM] | TGI [9] [µM] | TGI [10] [µM] | GI50 [10] [µM] |
| --- | --- | --- | --- | --- | --- | --- | --- | --- | --- | --- | --- | --- | --- | --- | --- | --- | --- | --- | --- | --- |
| CN(C)c1ccc([O-])cc1.CN(C)c1ccc([O-])cc1.CN(C)c1ccc([O-])cc1.CN(C)c1ccc([O-])cc1.[Ti+4] | > 100 | > 100 | 37.4 | > 100 | > 100 | > 100 | > 100 | > 100 | > 100 | > 100 | 30.9 | > 100 | > 100 | > 100 | > 100 | > 100 | 51.9 | > 100 |  |  |
| O=C(Nc1cccc([N+](=O)[O-])c1)C(=O)C(C(=O)c1ccccc1-c1ccccc1)C1OC(=O)c2ccccc21 (stereo not given) |  | 59.1 |  | 88 |  | 66.5 |  |  |  | 51.8 |  | 60.3 |  | 30.1 |  | 39.5 |  | 82.7 | 32.8 |  |
| COc1ccc(NC(=O)C(=O)Cc2nc3ccc([N+](=O)[O-])cc3[nH]c2=O)c(OC)c1 |  | > 100 |  | > 100 |  | > 100 |  | > 100 |  | > 100 |  |  |  | > 100 |  | > 100 |  | > 100 | > 100 |  |
| COc1ccc(N2Cc3cnc(Nc4ccccc4)nc3N([C@@H]3CC[C@@H](O)C3)C2=O)cc1 |  |  | 3.41 | > 25 | 17.6 | > 25 | 1.36 | > 9.74 | 0.869 | > 16.5 | 5.72 | > 25 | 8.17 | > 25 | 5.54 | > 25 | 5.16 | > 25 | 10.7 | 1.16 |
| CCCc1c(CC)c(=N)c2ccccc2n1C |  |  | > 100 | > 100 | 57 | > 100 | > 100 | > 100 | > 100 | > 100 | 36.3 | > 100 | 37.7 | > 100 | > 100 | > 100 | > 100 | > 100 | > 100 | 30.5 |
| CCCCS(=O)CCC(N)C(=O)O (stereo not given) |  | > 100 |  | > 100 |  | > 100 |  | > 100 |  | > 100 |  |  |  | > 100 |  | > 100 |  | > 100 |  |  |
| O=Nc1c(-c2c(O)[nH]c3ccc([N+](=O)[O-])cc23)[nH]c2ccc(O)cc12 |  |  | 0.32 |  | 0.62 | > 100 | 0.332 | > 100 |  |  | 0.665 | 14.7 | 0.549 | > 49.5 | 1.65 | 51.1 | 0.674 | > 60.6 | > 29.1 | 2.78 |
| CCCCCCCCCCCCCCN |  | > 100 |  | > 100 |  | > 100 |  | > 100 |  |  |  | > 100 |  | > 100 |  | > 100 |  |  | > 100 |  |
| Cn1nc(-c2ccccc2)c(C(=O)/C=C/c2ccc(F)cc2)c(N2CCCCC2)c1=O |  | 72.3 |  | 18.1 |  |  |  | 27.3 |  | 19.1 |  | 6.98 |  |  |  |  |  | 55.1 | 20 |  |
| CCOC(=O)C1=C(C(=O)c2ccc(C)cc2)C(c2cccc([N+](=O)[O-])c2)C(C(=O)c2ccc(C)cc2)=C(C(=O)OCC)N1 |  | 47.1 |  | > 100 |  | 32.1 |  | 43.5 |  | 29.5 |  |  |  | 30.1 |  | 34.7 |  | 66.1 |  |  |
| CCCCc1c2c(nc3c1CCc1cc4cc5c(nc4nc1-3)-c1nc3c(c(CCCC)c1CC5)CCCC3)CCCC2 |  | > 100 |  | > 100 |  | > 100 |  |  |  | > 100 |  | > 100 |  | > 100 |  |  |  | > 100 |  |  |
| CCc1cccc(C(C)C)c1NC(=O)C(=O)CC(=O)c1c(C)n([O-])c2ccccc2[n+]1=O |  | > 100 |  | > 100 |  |  |  | > 100 |  | > 100 |  | > 100 |  | > 100 |  | > 100 |  | > 100 | > 100 |  |
| O=C(O)COc1ccc(O)c2c1C(=O)CCCC2=O |  | > 100 |  | > 100 |  | > 100 |  | > 100 |  | > 100 |  | > 100 |  | > 100 |  | > 100 |  | > 100 |  |  |
| O=Cc1ccccc1OCCOc1cc(OCCOc2ccccc2C=O)c(OCCOc2ccccc2C=O)cc1OCCOc1ccccc1C=O |  | > 100 |  | > 100 |  |  |  | > 100 |  | > 100 |  | > 100 |  | > 100 |  | > 100 |  | > 100 | > 79.8 |  |
| CC1(C)C(=O)C(C)(C)C1=NN |  |  |  | > 100 |  | > 100 |  | > 100 |  | > 100 |  | > 100 |  | > 100 |  | > 100 |  | > 100 | > 100 |  |
| OCCCOC(c1ccccc1)(c1ccccc1)c1ccccc1 |  |  |  | > 100 |  | > 100 |  | > 100 |  | > 100 |  | > 100 |  | > 100 |  | > 100 |  | > 100 | > 100 |  |
| CCCCCCCNc1nc(C(=O)OCC)ncc1-c1ccc(C(F)(F)F)cc1 |  |  | 14.7 | 32.7 | 26.4 | > 100 | 38.2 | > 100 | 16.4 | 77.1 | 17.8 | 66.9 | 42.2 | > 100 | > 100 | > 100 | > 100 | > 100 | > 100 | 24.8 |
| O=C1C(c2c[nH]c3ccccc23)=C(c2c[nH]c3ccccc23)C(=O)N1O |  |  | > 25 | > 25 | > 25 | > 25 | > 20.8 | > 25 | 5.78 | > 25 | > 25 | > 25 | > 25 | > 25 | > 25 | > 25 | > 25 | > 25 | 21.7 | 2.89 |
| CCCn1c(SC)nc(COC(=O)NC)c1COC(=O)NC |  | > 100 |  | > 100 |  | > 100 |  | > 100 |  | > 100 |  | > 100 |  | > 100 |  | > 100 |  | > 100 |  |  |
| O=C(c1ccccc1)C1CCCCN1C(=O)c1ccccc1 (stereo not given) |  |  |  | > 100 |  |  |  | > 100 |  | > 100 |  | > 100 |  |  |  |  |  | > 100 |  |  |
